Results reported in US9616075B2, “Method of treating and preventing brain impairment using Na+-K+-2Cl-cotransporter isoform 1 inhibitors” (University of Rochester, priority 2012, dated 2017).
Read-outs that look alike come from different tables or passages of the source.

Legend:
[1] = tested on: cortical inhibitory networks; assay: Paired-pulse whisker stimulation (paired-pulse ratio, cortical inhibitory function) in awake mice; type: in vivo, mouse; conditions: for Paired-pulse ratio (PPR): awake mice
Description: (§1) Recordings were analyzed offline using pClamp 10.2.
Next, it was investigated how cortical ammonia toxicity leads to neurological dysfunction and seizures. […] Neurobiol. […] The whisker stimulation paradigm elicits two successive field excitatory post-synaptic potentials (fEPSP), where the second fEPSP has lower amplitude due to activation of cortical inhibitory networks (quantified by a paired-pulse ratio (PPR)<1).

Otc^spf-ash mice [2] = assay: Automated video analysis of spontaneous mouse movement; type: in vivo; conditions: Otc^spf-ash mice after systemic NH4Cl load 7.5 mmol kg^−1; bumetanide 30 mg kg^−1 i.p.
Description: Otc^spf-ash mice were crossed with Glt-1-eGFP mice for imaging experiments. C57BL/6J mouse and Wistar rat pups were obtained from Jackson Laboratories. To analyze cognitive abilities in OTC mice, two commercial conditioning chambers (H10-11M-TC, Coulbourn Instruments) were adapted for contextual fear conditioning. Over the course of 4 days, mice were trained via a tone/shock protocol and trained to fear contextual and auditory cues. […] Automated movement analysis was performed using AnyMazeTM software analysis of CCD-camera recordings in a standard mouse cage.

awake mice = assay: Myoclonic event (ME) frequency on EEG in awake mice; type: in vivo, mouse
Description: Electrophysiological Recordings—In vivo recordings were obtained from layer II somatosensory cortex. In situ recordings were obtained from layer II in coronal cortical slices prepared from P21-30 mice. ISMs of K^+ and NH4^+ were pulled from double-barreled pipette glass (PB150-6, WPI) with a tip of 1-3 μm. The pipettes were silanized (coated) with dimethylsilane I (Fluka, Sigma) and filled with either K^+ ionophore I cocktail B (Fluka, selectivity coefficient −1.8 log(K^+/NH4^+)) or NH4+ ionophore I cocktail B (Fluka, −0.9 log(NH4^+/K^+)). […] Electroencephalogram (EEG) signals were externally filtered at 6 Hz (Filter Butterworth Model by Encore, Axopatch 200B by Axon Instruments), band pass filtered at 1-100 Hz and digitized (Digidata 1440A by Axon Instruments). Ion-sensitive microelectrode (ISM) signals were amplified (FD223a by WPI), externally filtered and digitized as above, and reference field potential traces were subtracted. In selected experiments, wireless electromyogram (EMG) and electroencephalogram (EEG) electrodes were implanted (DSI Physiotel®), and an extracellular microelectrode was placed in the thalamus (ventrobasal complex). Recordings were analyzed offline using pClamp 10.2. Myoclonic events (ME) were defined on the EEG as single or multiple 3-9 Hz polyspike and wave discharges (SWD) of 0.2-2 second duration associated with myoclonic jerks determined by video recording, EMG or direct observation.

Na^+—K^+-ATPase (NKA) = tested on: Na^+—K^+-ATPase (NKA)
Description: Cell Culture Assays—Cultured neocortical astrocytes were prepared from P1-2 mouse and rat pups as previously described. Wang et al., “Astrocytes Modulate Neural Network Activity by Ca(2)(+)-Dependent Uptake of Extracellular K(+),” Science Signaling 5:ra26 (2012); Lin et al., “Gap-Junction-Mediated Propagation and Amplification of Cell Injury,” Nat. Neurosci. 1:494-500 (1998), which are hereby incorporated by reference in their entirety. For ^86Rb^+ experiments the cultures were incubated for 10 minutes±ouabain (1 mM). The potassium analogue ^86Rb^+ was then added to each well plate for 15 minutes (1 μCi, Perkin Elmer). The reaction was stopped by placing the cells on ice and washed with ice-cold aCSF. The cells were lysed and ^86Rb^+ uptake quantified by liquid scintillation counting (Beckman Coulter). For Na^+—K^+-ATPase activity, astrocyte cultures were utilized as previously described, and enzyme activity was quantified using the malachite green reaction (Sigma) and analyzed using spectrophotometry. Anupama et al. “Comparison of Na—K ATPase Activity in Rat Brain Synaptosome Under Various Conditions,” Neurochem. Int. 33:283-286 (1998), which is hereby incorporated by reference in its entirety.

cortical slices = conditions: 7 mM ammonia in perfusate
Description: (§3) Electrophysiological Recordings—In vivo recordings were obtained from layer II somatosensory cortex. In situ recordings were obtained from layer II in coronal cortical slices prepared from P21-30 mice. ISMs of K^+ and NH4^+ were pulled from double-barreled pipette glass (PB150-6, WPI) with a tip of 1-3 μm. The pipettes were silanized (coated) with dimethylsilane I (Fluka, Sigma) and filled with either K^+ ionophore I cocktail B (Fluka, selectivity coefficient −1.8 log(K^+/NH4^+)) or NH4+ ionophore I cocktail B (Fluka, −0.9 log(NH4^+/K^+)). […] Ion-sensitive microelectrode (ISM) signals were amplified (FD223a by WPI), externally filtered and digitized as above, and reference field potential traces were subtracted. […] Recordings were analyzed offline using pClamp 10.2.
(§4) In Situ Electrophysiology—Coronal cortical slices were prepared from P21-30 mice, as described previously. […] All experiments were performed at 32-35° C. […] Whole-cell patch-clamp recordings were done using electrodes with 3-5 M106 resistance, and an intracellular solution containing 135 mM K-methylsulfate, 10 mM KCl, 10 mM hepes, 5 mM NaCl, 2.5 mM Mg-ATP, 0.3 mM Na-GTP (pH 7.3), containing Alexa Fluor® 350 (Invitrogen). Signals were low-pass filtered at 2 kHz and digitized at 10 kHz using Axopatch MultiClamp 700A and Digidata 1320A (Axon Instruments).

NKCC1 [3] = conditions: NKCC1 knock-out Slc12a2^−/−
Description: as §1
(§2) Because EGABA is heavily dependent on chloride transporters, the diuretic bumetanide was next tested, a highly specific NKCC1 inhibitor used in clinical practice to treat heart failure. Hannaert et al., “Rat NKCC2/NKCC1 Cotransporter Selectivity For Loop Diuretic Drugs,” Naunyn Schmiedebergs Arch. Pharmacol. 365:193-199 (2002); Dzhala et al., “NKCC1 Transporter Facilitates Seizures in the Developing Brain,” Nat. […] To ensure the molecular specificity of bumetanide, gramicidin-perforated patch recordings were also performed in conditional NKCC1 knock-out (Slc12a2^−/−) and wild-type littermates (Slc12a2′^+/+).

NKCC1 [4] = target: NKCC1 (Mus musculus, UniProt P55012); conditions: wild-type Slc12a2^+/+
Description: as §1, §2

Otc^spf-ash mice [5] = assay: NH4+ and K+ ion-sensitive microelectrode (ISM) recordings from cortex of awake mice; conditions: mean±SEM
Description: Body temperature was maintained with a heating pad. For systemic drug treatment, a polyethylene intraperitoneal (i.p.) catheter was surgically implanted to deliver drugs accurately and with minimal manipulation. For cortical drug application artificial cerebrospinal fluid (aCSF) was perfused across the cortex of awake mice at a rate of 2 mL/minute, into a custom-made well with ˜200 μL volume, through tubing with ˜100 μL volume, meaning the entire volume bathing the brain was exchanged approximately every 9 seconds.
Electrophysiological Recordings—In vivo recordings were obtained from layer II somatosensory cortex. […] ISMs of K^+ and NH4^+ were pulled from double-barreled pipette glass (PB150-6, WPI) with a tip of 1-3 μm. The pipettes were silanized (coated) with dimethylsilane I (Fluka, Sigma) and filled with either K^+ ionophore I cocktail B (Fluka, selectivity coefficient −1.8 log(K^+/NH4^+)) or NH4+ ionophore I cocktail B (Fluka, −0.9 log(NH4^+/K^+)). […] Ion-sensitive microelectrode (ISM) signals were amplified (FD223a by WPI), externally filtered and digitized as above, and reference field potential traces were subtracted.
Ion Sensitive Microelectrode (ISM) Fabrication—Ion Sensitive Microelectrodes (ISMs) of K^+ and NH4^+ were pulled from double-barreled pipette glass (PB150-6, WPI) with a tip of 1-3 μm. The pipettes were silanized (coated) with dimethylsilane I (Fluka, Sigma). […] The K^+ ionophore has a selectivity coefficient relative to NH4^+ of −1.8 log (K^+/NH4^+), and the NH4^+ ionophore has a selectivity coefficient relative to K^+ of −0.9 log (NH4^+/K^+). […] The reference barrels were used to record the DC potentials and were filled with 0.15 M NaCl. In selected experiments, single barrel electrodes were also used in combination with single reference electrodes. K^+ and NH4^+ ISM traces were subtracted for interference by calculating the mV response to the increase of the other ion in calibration solutions. All ISMs were calibrated before and after each experiment. […] Calibration data were fitted to the Nikolsky equation to determine electrode slope and interference.

Otc^spf-ash mice [6] = assay: Sensory-motor phenotype score; type: in vivo, mouse; conditions: Otc^spf-ash mice after systemic NH4Cl load 7.5 mmol kg^−1; bumetanide 30 mg kg^−1 i.p.
Description: Mouse movement and seizure activity were omitted from this score, because it was desired that these manifestations be independently and more quantitatively represented. The score thus consisted of four elements: hyperacusis (0-2), imbalance (0-3), ataxia/tremor (0-3) and level of consciousness (0-3). A maximum score of 11 represents deep coma (no corneal reflex) whilst 0 represents normal wakefulness. Each animal was scored after the first 5 minutes and then every 15 minutes as they progressed through the stereotypical stages of ammonia neurotoxicity. […] Ataxia/tremor was scored using a gait test, where the mouse was encouraged to walk for a short distance. […] Consciousness was scored as either 0 for awake, 1 loss of scatter reflex, 2 loss of righting reflex (LORR), 3 loss of corneal reflex.

[7] = 1H-NMR brain amino acid concentrations; type: in vivo, mouse; conditions: 30 minutes after administration, mean±SEM
Description: ^1H-NMR Spectroscopy—Mice were anesthetized using 1.5% isoflurane and decapitated. Forebrains (whole brain minus cerebellum/brainstem) were quickly extracted, frozen in liquid nitrogen, and homogenized in 7.5 mL 12% PCA at 0° C. using a micro-sonicator. The homogenate was centrifuged at 25,000 G for 15 minutes, and the supernatants were neutralized to pH 7.0 with KOH over an ice bath. A further 15 minute centrifugation (25,000 G) separated the resultant KClO4, and the supernatant was lyophilized before being reconstituted with 0.65 ml D2O. ^1H-NMR spectra were acquired using a 600 mHz Varian Unity NOVA spectrometer equipped with a triple-axis gradient HCN probe (standard room temperature). Signals were acquired following a 90° pulse with a spectral width of 7200 Hz and 32K data points. The time between pulses was 15 seconds and 64 signals were averaged for each spectrum. The sample temperature was 25° C. Integrals of the relevant peaks were converted to μmol/gram wet-weight and normalized NAA (methyl) to increase inter-sample consistency.

[8] = Otc^spf-ash mice after 7.5 mmol kg^−1 i.p. ammonia load (baseline 0.32±0.07)
Description: Biochemical and Hemodynamic Analysis—Plasma ammonia analysis was performed on blood samples collected using 50 μL heparinized tubes from the femoral artery. A L-glutamate dehydrogenase based kit (Sigma) was used for the quantification of ammonia in plasma.

astrocytes [9] = conditions: awake Otc^spf-ash mice, ammonia load
Description: Two-Photon Laser Scanning Microscopy (2PLSM)—A Mai Tai laser (SpectraPhysics) attached to a confocal scanning system (Fluoview 300, Olympus) and an upright microscope (IX51W) was used. Briefly, volume changes and calcium activity were imaged in cortex 100 μm below the pial surface, as described previously, using a 60× (1.1 NA) and a 20× (0.95 NA) lens, respectively. For in vivo volumetry xyzt image series were collected (z-step 1.5 μm, every 5 minutes) with acquisition time<20 seconds and laser power<40 mW. For in vivo calcium imaging, dual channel (rhod-2 and eGFP) frames were collected at 0.2 or 2 Hz. A low sampling rate and <20 mW laser were used to avoid photo damage. […] Therefore, each animal was tested for optimal loading by performing whisker stimulation, to verify a physiological calcium response. Wang et al., “Astrocytic Ca^2+ Signalling Evoked by Sensory Stimulation In Vivo,” Nat. Neurosci. 9:816-823 (2006), which is hereby incorporated by reference in its entirety. A calcium transient was defined as an event where the relative ratio between the rhod-2 and eGFP signal intensities (ΔF/F0) was >2 standard deviations […] from baseline. Beginning and end were defined as ΔF/F0>0.5 π and <0.5 π respectively. Amplitude was taken as the peak ΔF/F0 in this interval. […] Volume and calcium recordings were analyzed using previously described custom-made software (MatLab Inc.).

pyramidal neurons = assay: Whole-cell voltage clamp with ramp voltage and GABA application in acute cortical slices (EGABA); type: cell-based, mouse
Description: as §3, §4

astrocytes [10] = conditions: n = 52 cells, mean±SEM; for Astrocyte calcium transient Freq.: awake Otc^spf-ash mice, 100 μm below pial surface
Excerpt: Body temperature was maintained with a heating pad.
Two-Photon Laser Scanning Microscopy (2PLSM)—A Mai Tai laser (SpectraPhysics) attached to a confocal scanning system (Fluoview 300, Olympus) and an upright microscope (IX51W) was used. Briefly, volume changes and calcium activity were imaged in cortex 100 μm below the pial surface, as described previously, using a 60× (1.1 NA) and a 20× (0.95 NA) lens, respectively. For in vivo volumetry xyzt image series were collected (z-step 1.5 μm, every 5 minutes) with acquisition time<20 seconds and laser power<40 mW. For in vivo calcium imaging, dual channel (rhod-2 and eGFP) frames were collected at 0.2 or 2 Hz. A low sampling rate and <20 mW laser were used to avoid photo damage. […] Therefore, each animal was tested for optimal loading by performing whisker stimulation, to verify a physiological calcium response. Wang et al., “Astrocytic Ca^2+ Signalling Evoked by Sensory Stimulation In Vivo,” Nat. Neurosci. 9:816-823 (2006), which is hereby incorporated by reference in its entirety. A calcium transient was defined as an event where the relative ratio between the rhod-2 and eGFP signal intensities (ΔF/F0) was >2 standard deviations […] from baseline. Beginning and end were defined as ΔF/F0>0.5 π and <0.5 π respectively. Amplitude was taken as the peak ΔF/F0 in this interval. For in situ volumentric imaging acute cortical slices were loaded with texas red hydrazide (1.5 μM, a fixable sulforhodamine 101 derivative) in aCSF for 50 minutes. Volume and calcium recordings were analyzed using previously described custom-made software (MatLab Inc.).
Data in Table 2 is from analysis of 2PLSM xyt series, where calcium indicator rhod-2 was used to detect astrocyte calcium transients 100 μm below the pial surface. Data are shown as mean±SEM.

Otc^spf-ash mice [11] = assay: Survival after ammonia overdose (Cox regression); type: in vivo, mouse
Description: Where n≧10 for normally distributed data, the unpaired t test or ANOVA were used for independent samples, and paired t test for paired samples. Where n<10 non-parametric tests including Mann-Whitney U and Kruskall-Wallis were used for independent samples, and Wilcoxon signed ranks test for paired samples. Overdose survival was compared using Cox regression model (controlling for the confounding effect of mouse weight).
To test the validity of the present in situ model, awake animals were tested (FIG. 4A). […] To investigate whether this improvement of neuronal function translated into a clinically relevant improvement in disease phenotype, the phenotype measures outlined in FIGS. 1A-1I were employed.

[12] = after washout of cortical NH4Cl (± bumetanide)
[13] = during cortical NH4Cl application (10 mM) ± bumetanide 5 μM
[14] = cortical NH4Cl (10 mM) ± bumetanide
[15] = systemic NH4Cl (7.5 mmol kg^−1) ± bumetanide
[16] = cortical superfusion (NH4Cl 10 mM, BUM 5 μM)
[17] = intraperitoneal injection (NH4Cl 7.5 mmol kg^−1, BUM 30 mg kg^−1)
[18] = Otc^spf-ash mice, ammonia 7.5 mmol kg^−1 i.p.
[19] = during cortical KCl application (12.5 mM) ± bumetanide 5 μM

Chain of NKCC1 (Mus musculus, UniProt P55012) (P55012 whole entry): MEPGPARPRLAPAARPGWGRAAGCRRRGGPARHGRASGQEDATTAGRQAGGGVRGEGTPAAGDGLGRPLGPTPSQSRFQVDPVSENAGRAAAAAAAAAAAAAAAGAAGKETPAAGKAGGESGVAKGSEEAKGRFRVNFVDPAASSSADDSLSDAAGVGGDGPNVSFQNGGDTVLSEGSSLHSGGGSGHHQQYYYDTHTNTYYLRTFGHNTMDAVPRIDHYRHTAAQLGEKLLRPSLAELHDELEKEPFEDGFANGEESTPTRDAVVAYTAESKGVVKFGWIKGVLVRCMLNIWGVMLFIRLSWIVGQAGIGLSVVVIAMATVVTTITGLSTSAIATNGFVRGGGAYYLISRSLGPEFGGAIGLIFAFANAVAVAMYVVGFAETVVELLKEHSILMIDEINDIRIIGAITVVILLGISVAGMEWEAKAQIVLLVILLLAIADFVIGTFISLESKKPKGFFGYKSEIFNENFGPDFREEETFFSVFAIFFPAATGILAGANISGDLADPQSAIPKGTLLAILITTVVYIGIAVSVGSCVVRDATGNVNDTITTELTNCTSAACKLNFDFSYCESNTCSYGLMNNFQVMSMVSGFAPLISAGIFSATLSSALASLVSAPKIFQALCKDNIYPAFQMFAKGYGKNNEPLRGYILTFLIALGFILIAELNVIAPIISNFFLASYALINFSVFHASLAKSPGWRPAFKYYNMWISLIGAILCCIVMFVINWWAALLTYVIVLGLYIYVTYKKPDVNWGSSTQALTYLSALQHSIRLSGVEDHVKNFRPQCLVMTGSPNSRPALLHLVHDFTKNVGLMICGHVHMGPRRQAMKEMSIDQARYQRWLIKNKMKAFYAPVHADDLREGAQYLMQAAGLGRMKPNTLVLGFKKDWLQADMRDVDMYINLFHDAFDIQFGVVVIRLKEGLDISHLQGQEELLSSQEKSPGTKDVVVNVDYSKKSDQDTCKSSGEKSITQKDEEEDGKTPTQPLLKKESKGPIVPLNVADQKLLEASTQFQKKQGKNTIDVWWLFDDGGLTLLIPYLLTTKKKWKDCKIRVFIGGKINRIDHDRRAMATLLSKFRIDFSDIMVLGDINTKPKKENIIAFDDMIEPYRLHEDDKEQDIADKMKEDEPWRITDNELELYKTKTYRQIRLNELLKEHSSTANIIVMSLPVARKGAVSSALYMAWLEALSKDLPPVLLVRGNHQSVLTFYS

| Structure (SMILES) | Paired-pulse ratio (PPR) after washout [1, 12] | Paired-pulse ratio (PPR) [1, 13] | Spontaneous mouse movement (Otc^spf-ash mice [2]) [m min^−1] | ME frequency (awake mice; [14]) [ME min^−1] | ME frequency (awake mice; [15]) [ME min^−1] | [NH4^+]o (Otc^spf-ash mice [5]; [16]) [mM] | [NH4^+]o (Otc^spf-ash mice [5]; [17]) [mM] | Δ[K^+]o (Otc^spf-ash mice [5]; [17]) [mM] | Sensory-motor phenotype score (out of 11) (Otc^spf-ash mice [6]) | Brain GABA [7, 18] [μmol g^−1 wet weight] | Brain Glutamate [7, 18] [μmol g^−1 wet weight] | Brain Glutamine [7, 18] [μmol g^−1 wet weight] | Brain GABA ([7]; WT mice) [μmol g^−1 wet weight] | Brain Glutamate ([7]; WT mice) [μmol g^−1 wet weight] | Brain Glutamine ([7]; WT mice) [μmol g^−1 wet weight] | Paired-pulse ratio (PPR) [1, 19] | further results |
| --- | --- | --- | --- | --- | --- | --- | --- | --- | --- | --- | --- | --- | --- | --- | --- | --- | --- |
| N [NH4Cl] | 0.61±0.15 | 1.56±0.24 | 0.42±0.22 | 1.02±0.07 | 2.66±0.14 | 5.82 ± 0.18 | 4.83 ± 0.52 | 1.93 ± 0.19 | 9.00±0.46 | 2.46 ± 0.13 | 13.24 ± 0.33 | 9.25 ± 0.34 | 2.19 ± 0.12 | 12.49 ± 0.15 | 8.69 ± 0.33 |  | NKA activity with NH4Cl substituted for KCl (Na^+—K^+-ATPase (NKA); NH4Cl 15 mM, cell-free): able to maintain normal NKA activity; NKA-dependent (ouabain-sensitive) 86Rb^+ uptake (Na^+—K^+-ATPase (NKA); ammonia 0.5-10 mM, cultured astrocytes): dose-dependent reduction; Increase in [K^+]o (cortical slices): 1.88 ± 0.13 mM; Increase in [NH4^+]o (cortical slices): 3.67 ± 0.53 mM; Depolarizing effect on EGABA (NKCC1 [3]): +1.00±1.07; Depolarizing effect on EGABA (NKCC1 [4]): +11.14±1.22; Δ[K^+]o (Otc^spf-ash mice [5]; intraperitoneal injection (NH4Cl 7.5 mmol kg^−1, BUM 30 mg kg^−1), listed as ammonia): 1.93 ± 0.19 mM; Extracellular ammonia concentration in plasma [8]: 4.21 ± 0.59 mM; Astrocyte swelling (astrocytes [9]): no significant astrocyte swelling; Transient astrocyte shrinkage (astrocytes [9]): 5.04±0.85%; Depolarization of EGABA (pyramidal neurons; ammonia 7 mM in perfusate, pyramidal neurons, ramp voltage 0 to −120 mV): +12.33±3.66 mV; Astrocyte calcium transient Freq. (astrocytes [10]): 9.03 ± 1.16 Hz cell^−1 × 10^−3; Astrocyte calcium transient Freq. (astrocytes [10]; listed as ammonia): 9.03±1.16 Hz cell^−1 × 10^−3; Astrocyte calcium Cell-cell correlation (astrocytes [10]; awake mice): 0.26 ± 0.08; Astrocyte calcium transient Amplitude (ΔF/F0) (astrocytes [10]; awake mice): 0.47 ± 0.32; Astrocyte calcium transient Duration (astrocytes [10]; awake mice): 21.51 ± 4.55 s; Astrocyte calcium Cell-cell correlation (astrocytes [10]; awake mice, listed as ammonia): 0.26±0.08 |
| [Cl-].[K+] [KCl] |  |  |  |  |  |  |  |  |  |  |  |  |  |  |  | 1.48±0.22 | Paired-pulse ratio (PPR) after washout ([1]; after washout of cortical KCl): 0.63±0.14 |
| CCCCNc1cc(C(=O)O)cc(S(N)(=O)=O)c1Oc1ccccc1 [bumetanide] | 0.59±0.17 | 0.88±0.15 | 3.17±0.46 | 0.10±0.02 | 0.32±0.02 | 0.52 ± 0.11 | 0.42 ± 0.16 | 0.0073 ± 0.015 | 6.00±0.72 | 2.39 ± 0.13 | 14.27 ± 0.23 | 8.70 ± 1.54 | 2.55 ± 0.05 | 14.38 ± 0.22 | 4.52 ± 0.18 | 0.92±0.18 | Survival after ammonia overdose increased by a factor (Otc^spf-ash mice [11]; NH4Cl overdose 10 mmol kg^−1, Otc^spf-ash mice): 3.87; Hazard rate ratio (Otc^spf-ash mice [11]; NH4Cl overdose 10 mmol kg^−1, 95% confidence interval 0.08 to 0.87): 0.26; Effect on ammonia-induced depolarization of EGABA (pyramidal neurons; bumetanide 5 μM pre-incubation): successfully prevented |
